Results taken from the supplement of paper PMC10307832.

Assays:
Assay in all cases: relative viability (nuclei count vs DMSO), 5 days (fraction); higher = more cells survive
AZ628 + Bortezomib = compound: CC1=C(C=C(C=C1)NC(=O)C2=CC(=CC=C2)C(C)(C)C#N)NC3=CC4=C(C=C3)N=CN(C4=O)C [AZ628] + CC(C)C[C@H](NC(=O)[C@H](Cc1ccccc1)NC(=O)c1cnccn1)B(O)O [Bortezomib] (partner 0.002 µM)
Procedure, shortened: (§1)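 Cells from lung cancer lines were seeded into 1536-well plates and, one day later, dosed by pin tool. Treatments were either a single drug or a fixed dose of an anchor drug with five library-drug doses (not always all listed) in √10 steps. After 5 days, nuclei were stained in a one-step fixation (final 0.05% Triton X-100, 1% formaldehyde, 1 ug/ml Hoechst) and counted on 4× images, and relative viability is the treated-to-vehicle nuclei ratio, as the median of duplicate plates.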

AZ628 + Alpelisib = compound: CC1=C(C=C(C=C1)NC(=O)C2=CC(=CC=C2)C(C)(C)C#N)NC3=CC4=C(C=C3)N=CN(C4=O)C [AZ628] + Cc1nc(NC(=O)N2CCC[C@H]2C(N)=O)sc1-c1ccnc(C(C)(C)C(F)(F)F)c1 [Alpelisib] (partner 2 µM)
Procedure, shortened: as §1

QS11 + Vorinostat = compound: C1CC2=C(C1)C=C(C=C2)OC3=NC(=C4C(=N3)N(C=N4)CC5=CC=C(C=C5)C6=CC=CC=C6)N[C@@H](CC7=CC=CC=C7)CO [QS11] + O=C(CCCCCCC(=O)Nc1ccccc1)NO [Vorinostat] (partner 1 µM)
Procedure, shortened: as §1

QS11 + AZD7762 = compound: C1CC2=C(C1)C=C(C=C2)OC3=NC(=C4C(=N3)N(C=N4)CC5=CC=C(C=C5)C6=CC=CC=C6)N[C@@H](CC7=CC=CC=C7)CO [QS11] + NC(=O)Nc1cc(-c2cccc(F)c2)sc1C(=O)N[C@H]1CCCNC1 [AZD7762] (partner 0.2 µM)
Procedure, shortened: as §1

Cell Line | relative viability (AZ628 + Bortezomib; first compound 0.08 µM) | relative viability (AZ628 + Bortezomib; first compound 0.253 µM) | relative viability (AZ628 + Bortezomib; first compound 0.8 µM) | relative viability (AZ628 + Bortezomib; first compound 2.53 µM) | relative viability (AZ628 + Bortezomib; first compound 8 µM) | relative viability (AZ628 + Alpelisib; first compound 0.08 µM) | relative viability (AZ628 + Alpelisib; first compound 0.253 µM) | relative viability (AZ628 + Alpelisib; first compound 0.8 µM) | relative viability (AZ628 + Alpelisib; first compound 2.53 µM) | relative viability (AZ628 + Alpelisib; first compound 8 µM) | relative viability (QS11 + Vorinostat; first compound 0.08 µM) | relative viability (QS11 + Vorinostat; first compound 0.253 µM) | relative viability (QS11 + Vorinostat; first compound 0.8 µM) | relative viability (QS11 + Vorinostat; first compound 2.53 µM) | relative viability (QS11 + Vorinostat; first compound 8 µM) | relative viability (QS11 + AZD7762; first compound 0.08 µM) | relative viability (QS11 + AZD7762; first compound 0.253 µM) | relative viability (QS11 + AZD7762; first compound 0.8 µM) | relative viability (QS11 + AZD7762; first compound 2.53 µM) | relative viability (QS11 + AZD7762; first compound 8 µM)
HCC-78 | 0.675 | 0.457 | 0.586 | 0.487 | 0.623 | 0.5 | 0.336 | 0.346 | 0.368 | 0.504 | 0.4 | 0.48 | 0.518 | 0.46 | 0.444 | 0.677 | 0.527 | 0.552 | 0.703 | 0.703
HCC-366 | 1.04 | 0.894 | 0.957 | 0.999 | 0.681 | 0.356 | 0.317 | 0.154 | 0.26 | 0.12 | 0.353 | 0.283 | – | 0.152 | 0.161 | 0.28 | 0.259 | – | 0.271 | 0.192
HCC-827 | 1.04 | 1.03 | 1.03 | 1.01 | 1.07 | 0.903 | 0.9 | 0.889 | 0.984 | 0.555 | 0.749 | 0.927 | 0.672 | 0.944 | 0.899 | 0.194 | 0.201 | 0.234 | 0.307 | 0.187
HOP-62 | 0.814 | 0.832 | 1.12 | 0.975 | 0.805 | 1.02 | 1.11 | 0.947 | 1.24 | 0.451 | 0.556 | 0.564 | 0.533 | 0.416 | 0.447 | 0.556 | 0.611 | 0.538 | 0.608 | 0.582
LC-2-ad | 1.06 | 0.926 | 0.972 | 0.972 | 0.751 | 0.968 | 0.865 | 0.982 | 0.851 | 0.466 | 0.748 | 0.739 | 0.531 | 0.671 | 0.74 | 0.726 | 0.865 | 0.666 | 0.926 | 1.03
LCLC-103H | 0.932 | 1.13 | 1.09 | 1.02 | 1.18 | 0.924 | 1.07 | 0.981 | 0.986 | 0.919 | 0.724 | 0.783 | – | 0.799 | 0.734 | 0.861 | 0.775 | – | 0.772 | 0.881
LOU-NH91 | 0.481 | 0.478 | 0.485 | 0.466 | 0.453 | 0.714 | 0.747 | 0.691 | 0.687 | 0.577 | 0.896 | 0.858 | 0.871 | 0.936 | 0.916 | 0.764 | 0.707 | 0.751 | 0.719 | 0.818
LU99A | 1.15 | 1.21 | 1.31 | 1.07 | 0.451 | 0.456 | 0.478 | 0.628 | 0.554 | 0.216 | 0.432 | 0.438 | 0.51 | 0.515 | 0.464 | 0.326 | 0.348 | 0.398 | 0.362 | 0.239
